Data reported in patent US10190166B2, “Methods for identifying dendritic cell subsets, for determining if a patient is developing a regulatory or an effector immune response, and for determining response to immunotherapy” (STALLERGENES, priority 2011, dated 2019).
Values joined by “and” are separate entries in the source; they are usually repeats but may differ in a detail not shown here. Identical values can stand only once.

Key:
monocyte-derived DCs [1] = assay: Label free MS analysis of DC subtypes; assay type: cell-based, human
Method: Label-free MS of digested total protein lysates (solubilized in buffer A as described above), was conducted to compare proteomes of control, effector and regulatory DC subsets. Briefly, a common ultrafiltration device was used for detergent removal (CHAPS) to enable subsequent proteome analysis (Filter-aided sample preparation, FASP). 100 μg of proteins were mixed with urea-containing buffers in the filter unit (Amicon Ultra-0.5 ml, Ultracel-10 kDa Membrane, Millipore, Molsheim, France), reduced with 20 mM DTT, alkylated with 50 mM iodoacetamide, digested with Lys-C (37° C., 5 h, ratio 1/50, Sigma-Aldrich) and then with trypsin (37° C., overnight, ratio 1/50). After digestion, peptides were desalted using RPC18 Dynal magnetic beads (Invitrogen), acidified with FA and 1.5 to 2 μg of tryptic peptides were analyzed by nanoLC-MS or nanoLC-MS/MS.
In MS mode, full scan MS spectra were acquired from m/z 280 to 1500 (1 MS spectrum of 0.8 s) during 270 min. Ion intensities recorded in LC-MS data were analyzed using Progenesis LC-MS v3.1 software (Non Linear Dynamics) to provide reliable measurements of peptide (feature) abundance across samples. Internal calibration was performed by enabling the lock mass option in MS mode (minimum intensity>200 and mass±0.015 Da). […] Targeted nanoLC-MS/MS were accomplished by means of an inclusion mass list in the MS instrument method. […] Identification parameters were identical to those described for 2D-DIGE analysis. […] For accurate mass measurements, the lock mass option was enabled in MS and MS/MS mode.

monocyte-derived DCs [2] = assay: Western blot analysis of marker proteins in treated DCs; assay type: cell-based, human
Method: NuPAGE-Western blotting was carried out according to standard procedures (NuPAGE technical guide, Invitrogen). […] H00004599-[…], 1/500) from Abnova (Taipei, Taiwan), anti-CD71 (Cat. no. […] The rabbit polyclonal serum raised against GILZ was previously described (see […], et al. […] Peroxidase-conjugated goat anti-mouse and anti-rabbit secondary antibodies were both obtained from Jackson Immunoresearch Laboratories (Sufflok, England), and the chemiluminescence detection kit was from Pierce (SuperSignal West Pico Chemiluminescent Substrate, Fisher Scientific, Illkirch, France). Western blot signals were acquired with a CCD camera (Fusion FX7, Vilber-Lourmat, Marnes La Vallée, France) and band volume was quantified using the Bio-1D software (Vilber-Lourmat). β-actin or GAPDH were used as loading controls.

monocyte-derived DCs [3] = assay: Quantitative real-time PCR of marker genes in treated DCs
Method: Total RNA was extracted from treated DCs or PBMCs using RNeasy mini kits (Qiagen, Courtaboeuf, France) and cDNAs were obtained using TaqMan reverse transcription reagents (Applied Biosystems, Les Ulis, France) as per the manufacturer's instructions. Messenger RNA expression was evaluated by quantitative PCR on a 7900HT real-time PCR system (Applied Biosystems) with predesigned Taqman gene expression assays and reagents, according to the manufacturer's instructions. Expression of the following genes was assessed in DCs or PBMCs: GILZ (Hs00608272_m1), IDO (Hs00158032_m1), RALDH-1 (Hs00167445_m1), RALDH-2 (Hs00180254_m1), ANXA1 (Hs00167549_m1), CLIC2 (Hs01574555_m)1, FKBP5 (Hs01561001_m1), F13A (Hs00173388_m1), GPX1 (Hs00829989_gH), IMDH2 (Hs00168418_m1), OSF1 (Hs00273458_m1), TPP1 (Hs00166099_m1), C1QA (Hs00381122_m1), C1QB (Hs00608019_m1), C1QC (Hs00757779_m1), CATB (Hs00947433_m1), CATC (Hs00175188_m1), STAB1 (Hs01109068_m1), MRC1 (Hs00267207_m1), CD71 (Hs00951083_m1), FSCN1 (Hs00979631_g1), IRF4 (Hs01056533_m1), MX1 (Hs00895608_m1), NMES1 (Hs00260902_m1), TRAF1 (Hs01090170_m1). Expression of the following genes was assessed in T cells: IFNg (Hs00989291_m1), IL-4 (Hs00174122_m1), IL-10 (Hs00961622_m1) and IL-17A (Hs00174383_m1). Data were interpreted for each target gene in comparison with endogenous β-actin (Hs99999903_m1) or GAPDH (Hs03929097_g1) as controls. The relative amount of target genes in each sample was calculated in comparison with the calibrator sample using the ΔΔCt The magnitude of gene induction was calculated using the formula 2^−ΔΔCt=2^(−ΔCt for stimulated cells−ΔCt for unstimulated cells).

monocyte-derived DCs [4] = assay: Cell surface phenotype of treated DCs by flow cytometry; assay type: cell-based, human; settings: treatment during the differentiation step
Method: For immuno-fluorescence staining, cells were harvested, washed in PBS and incubated for 20 min at 4° C. with the following mAbs: FITC anti-CD14, FITC anti-CD80, PE anti-CD86, PC5 anti-CD83 (Beckman coulter), FITC anti-ILT2, PE anti-ILT4, PC5 anti-ILT3 (R&D systems) or PE-CD11c (Miltenyi Biotec, Paris, France). Cells were stained with corresponding isotype-matched control mAbs and analyzed by flow cytometry.

monocyte-derived DCs [5] = assay: Anti-inflammatory effect: treated DCs stimulated with LPS 24 h (costimulatory molecules, cytokine secretion); assay type: cell-based, human
[6] = moDCs treated 24 h, one value per peptide
[7] = tolerogenic DC models (model B)

C[C@@H]1C[C@H]2[C@@H]3CCC4=CC(=O)C=C[C@]4(C)[C@@]3(F)[C@@H](O)C[C@]2(C)[C@@]1(O)C(=O)CO [DEX, dexamethasone]
abundance of the m/z 865.70 molecular ion (monocyte-derived DCs [1]; moDCs treated 24 h): 16300
Annexin A5 (ANXA5) average normalized abundance (monocyte-derived DCs [1]; [6]): 16940 and 11135
Annexin A6 (ANXA6) average normalized abundance (monocyte-derived DCs [1]; [6]): 3594 and 2084
Chloride intracellular channel protein 2 (CLIC2) average normalized abundance (monocyte-derived DCs [1]; [6]): 3857 and 4306
Complement C1q subcomponent subunit C (C1QC) average normalized abundance (monocyte-derived DCs [1]; [6]): 4308 and 4812 and 2406 and 2725
Cystatin-C (CYTC) average normalized abundance (monocyte-derived DCs [1]; [6]): 7747 and 6610 and 5925
Dipeptidyl peptidase 1 (CATC) average normalized abundance (monocyte-derived DCs [1]; [6]): 9396 and 14732 and 15459
Gelsolin precursor (GELS) average normalized abundance (monocyte-derived DCs [1]; [6]): 5372 and 6735
Integrin alpha-M (ITAM) average normalized abundance (monocyte-derived DCs [1]; [6]): 3832
Interferon-induced GTP-binding protein Mx1 (MX1) average normalized abundance (monocyte-derived DCs [1]; [6]): 1192
Neuroblast differentiation-associated protein AHNAK (AHNK) average normalized abundance (monocyte-derived DCs [1]; [6]): 2629 and 3047
Normal mucosa of esophagus-specific gene 1 protein (NMES1) average normalized abundance (monocyte-derived DCs [1]; [6]): 2947 and 2380
Peptidyl-prolyl cis-trans isomerase A (PPIA) average normalized abundance (monocyte-derived DCs [1]; [6]): 18929 and 14751
Peptidyl-prolyl cis-trans isomerase FKBP5 average normalized abundance (monocyte-derived DCs [1]; [6]): 3640 and 5224 and 4046
Pleckstrin (PLEK) average normalized abundance (monocyte-derived DCs [1]; [6]): 5583 and 4404
Proteasome subunit alpha type-7 (PSA7) average normalized abundance (monocyte-derived DCs [1]; [6]): 3617 and 2212
Sequestosome-1 (SQSTM) average normalized abundance (monocyte-derived DCs [1]; [6]): 1340 and 2411
TNF receptor-associated factor 1 (TRAF1) average normalized abundance (monocyte-derived DCs [1]; [6]): 1732 and 2223
Transferrin receptor protein 1 (TFR1) average normalized abundance (monocyte-derived DCs [1]; [6]): 706 and 1195
WD repeat-containing protein 1 (WDR1) average normalized abundance (monocyte-derived DCs [1]; [6]): 2581 and 2605
C1QC specific peptides increase (monocyte-derived DCs [1]; tolerogenic DEX-DCs): ≤ 5 fold
ANXA1 protein level (monocyte-derived DCs [2]; DEX-DCs compared with Ctrl-DCs): 1.4 fold
FKBP5 protein induction (monocyte-derived DCs [2]; DEX-DCs compared with Ctrl-DCs): 2.6 fold
C1Q protein level (monocyte-derived DCs [2]; regulatory DEX-DCs): 12 fold
CATC protein level (monocyte-derived DCs [2]; regulatory DEX-DCs): 1.5 fold
MRC1 protein level (monocyte-derived DCs [2]; regulatory DEX-DCs): 1.4 fold
STAB1 protein level (monocyte-derived DCs [2]; regulatory DEX-DCs): 2.2 fold
C1QA, C1QB and STAB1 gene expression increase (monocyte-derived DCs [3]; DEX-DCs compared with Ctrl-DCs): ≤ 12 fold
FKBP5 and F13A gene expression increase (monocyte-derived DCs [3]; DEX-DCs relative to Ctrl-DCs): ≤ 15 fold

TGFb: cytokine TGFb added during the DC differentiation step (20 ng/ml)
CD14 expression (monocyte-derived DCs [4]): CD14^neg
ILT2 expression (monocyte-derived DCs [4]): ILT2^med
ANXA1, CATC and GILZ proteins (monocyte-derived DCs [2]; [7]): upregulated

C=C1/C(=C\C=C2/CCC[C@]3(C)[C@@H]([C@H](C)CCCC(C)(C)O)CC[C@@H]23)C[C@@H](O)C[C@@H]1O [VitD3, 1,25 dihydroxy-vitamin D3]
CD14 expression (monocyte-derived DCs [4]): CD14^med
ILT3 expression (monocyte-derived DCs [4]): ILT3^high
IL-6, IL-8 and TNF-α secretion after LPS stimulation (monocyte-derived DCs [5]): left uninhibited

B1: IL-10: cytokine IL-10 added during the DC differentiation step (10 ng/ml) (protein, UniProt P22301 19-178, looked up)
Interleukin-10: SPGQGTQSENSCTHFPGNLPNMLRDLRDAFSRVKTFFQMKDQLDNLLLKESLLEDFKGYLGCQALSEMIQFYLEEVMPQAENQDPDIKAHVNSLGENLKTLRLRLRRCHRFLPCENKSKAVEQVKNAFNKLQEKGIYKAMSEFDIFINYIEAYMTMKIRN
CD14 expression (monocyte-derived DCs [4]): CD14^high
ILT4 expression (monocyte-derived DCs [4]): ILT4high
F13A, MRC1 and STAB1 proteins (monocyte-derived DCs [2]; tolerogenic DC models (model B), DEX 24 h or differentiation): upregulated
CATC gene induction (monocyte-derived DCs [3]; [7]): detected
